Experimental data: patent US20140073639A1 (priority 2012, published 2014)
In brackets after ≈: the same amount, converted by molar mass.

Legend:
[1] = assay type: cell-based
[2] = test system: B. Anthracis; assay: microbe, parasite or virus in culture; assay type: cell-based; conditions: Bacillus anthracis; for inhibition at 3 µM: read-out: B. Anthracis 3 μM (growth inhibition); for inhibition at 10 µM: read-out: B. Anthracis 10 μM (growth inhibition); for inhibition at 30 µM: read-out: B. Anthracis 30 μM (growth inhibition)
[3] = test system: S. MRSA; assay: microbe, parasite or virus in culture; assay type: cell-based; conditions: Staphylococcus aureus, MRSA; for inhibition at 10 µM: read-out: S. MRSA 10 μM (growth inhibition); for inhibition at 30 µM: read-out: S. MRSA 30 μM (growth inhibition)

| SMILES | MIC, 25% Serum [1] | MIC, No Serum [1] | other results |
| --- | --- | --- | --- |
| C=CCN1C(=O)/C(=C\c2cc(OCC)c(O)c(Br)c2Cl)NC1=S [Cmpd 88] | >250 µM | >250 µM | – |
| CNC(=O)c1ccc(-c2ccc(/C=C3/NC(=S)N(C(Cc4ccccc4)C(=O)O)C3=O)o2)cc1Cl (stereo not shown) [Cmpd 85] | >250 µM | >250 µM | – |
| CNC(=O)c1cc(-c2ccc(/C=C3/NC(=S)N(C(Cc4ccccc4)C(=O)O)C3=O)o2)ccc1Cl (stereo not shown) [Cmpd 83] | >250 µM | >250 µM | – |
| COc1cc(/C=C2/NC(=S)N(C(Cc3ccccc3)C(=O)O)C2=O)c(Cl)c(Cl)c1O (stereo not shown) [Cmpd 90] | >250 µM | >250 µM | – |
| O=C(O)c1cccc(N2C(=O)/C(=C\c3ccc(-c4ccc(Cl)c(Cl)c4)o3)NC2=S)c1 [Cmpd 77] | >250 µM | 31.3 µM (≈ 14.4 µg/mL) | – |
| O=C(O)C(Cc1ccccc1)N1C(=O)/C(=C\c2ccco2)NC1=S (stereo not shown) [Cmpd 62] | >250 µM | >250 µM | – |
| O=C(O)C(Cc1ccccc1)N1C(=O)/C(=C\c2cc3cc(Br)ccc3o2)NC1=S (stereo not shown) [Cmpd 91] | >250 µM | 125 µM (≈ 58.9 µg/mL) | – |
| O=C1NC(=S)N/C1=C/c1ccc(-c2ccc(Cl)c(Cl)c2)o1 [Cmpd 63] | >250 µM | 62.5 µM (≈ 21.2 µg/mL) | – |
| O=C(O)C(Cc1ccccc1)N1C(=O)/C(=C\c2ccc(-c3cc(Cl)nc(Cl)c3)o2)NC1=S (stereo not shown) [Cmpd 80] | >250 µM | 62.5 µM (≈ 30.5 µg/mL) | – |
| C=CCN1C(=O)/C(=C\c2cc(OC)c(O)c(Cl)c2Cl)NC1=S [Cmpd 89] | >250 µM | 250 µM (≈ 89.8 µg/mL) | – |
| O=C(O)CN1C(=O)N/C(=C/c2ccc(-c3ccc(Cl)c(Cl)c3)o2)C1=O [Cmpd 79] | >250 µM | >250 µM | – |
| CNC(=O)C(Cc1ccccc1)N1C(=O)/C(=C\c2ccc(-c3ccc(Cl)c(Cl)c3)o2)NC1=S (stereo not shown) [Cmpd 56] | >250 µM | >250 µM | – |
| CC(C)[C@H](C(=O)O)N1C(=O)C[C@H](NC(=O)c2cocc2-c2ccc(Cl)cc2)C1=O [Cmpd 87] | >250 µM | >250 µM | – |
| O=C(O)C(Cc1ccccc1)N1C(=O)/C(=C\c2ccc(-c3ccc(Br)c(Cl)c3)s2)NC1=S (stereo not shown) [Cmpd 41] | – | – | inhibition at 3 µM [2]: 19.5%; inhibition at 10 µM [2]: 8.15%; inhibition at 30 µM [2]: 94.5%; inhibition at 10 µM [3]: -7.45%; inhibition at 30 µM [3]: -0.89% |
| O=C(O)C(Cc1ccccc1)N1C(=O)/C(=C\c2ccc(-c3ccc(Cl)c(Cl)c3)[nH]2)NC1=S (stereo not shown) [Cmpd 75] | >250 µM | 62.5 µM (≈ 30.4 µg/mL) | – |
| O=C(O)C(Cc1ccccc1)N1C(=O)/C(=C\c2ncc(-c3ccc(Cl)c(Cl)c3)o2)NC1=S (stereo not shown) [Cmpd 78] | >250 µM | 250 µM (≈ 122 µg/mL) | – |
| O=C(O)C(Cc1ccccc1)N1C(=O)/C(=C\c2oc(Cl)nc2Cl)NC1=S (stereo not shown) [Cmpd 84] | >250 µM | >250 µM | – |
| C=CCN1C(=O)/C(=C\c2ccc(-c3ccc(Cl)c(Cl)c3)o2)NC1=S [Cmpd 86] | >250 µM | >250 µM | – |
| O=C(O)C(Cc1ccccc1)N1C(=O)/C(=C\c2ccc(-c3ccc(OC(F)(F)F)cc3)o2)NC1=S (stereo not shown) [Cmpd 43] | – | – | inhibition at 3 µM [2]: 8.01%; inhibition at 10 µM [2]: 96.7%; inhibition at 30 µM [2]: 96.6%; inhibition at 3 µM ([3]; 3 μM, read-out: S. MRSA 3 μM (growth inhibition)): -1.32%; inhibition at 10 µM [3]: -6.26%; inhibition at 30 µM [3]: 95.2% |
| O=C1NC(=S)NC(=O)C1=Cc1ccc(-c2cccc(Cl)c2)o1 [Cmpd 14] | – | – | inhibition at 10 µM [2]: 3.62%; inhibition at 30 µM [2]: 27.2%; inhibition at 10 µM [3]: 7.65%; inhibition at 30 µM [3]: 47.8% |
| O=C1NC(=S)NC(=O)C1=Cc1ccc(-c2ccc(F)cc2)o1 [Cmpd 20] | – | – | inhibition at 10 µM [2]: 17.1%; inhibition at 30 µM [2]: 28.7%; inhibition at 10 µM [3]: 25.1%; inhibition at 30 µM [3]: 56% |
| O=C(O)c1cc(-c2ccc(/C=C3/NC(=S)N(C(Cc4ccccc4)C(=O)O)C3=O)o2)ccc1Cl (stereo not shown) [Cmpd 74] | >250 µM | >250 µM | – |
